From patent US9683019B2, “Cyclic polypeptides for the treatment of heart failure” (priority 2013, dated 2017)
Where a SMILES comes first, the peptide text is derived from it. Bridges are numbered along the chain shown (N, C = ends). [ ]: non-standard residue; d: D form. NMeF = CN[C@@H](Cc1ccccc1)C(=O)O; pGlu = O=C1CC[C@@H](C(=O)O)N1; hCys = N[C@@H](CCS)C(=O)O; Nle = CCCC[C@H](N)C(=O)O

Legend:
hAPJ = molecular target: T1, hAPJ (Homo sapiens, UniProt P35414); assay: hAPJ Calcium Flux Assay; type: cell-based; conditions: Chem-5 APJ stable cells, calcium flux stimulation; read-out: hAPJ Ca2+ Flux EC50
T1 sequence (P35414 1-380): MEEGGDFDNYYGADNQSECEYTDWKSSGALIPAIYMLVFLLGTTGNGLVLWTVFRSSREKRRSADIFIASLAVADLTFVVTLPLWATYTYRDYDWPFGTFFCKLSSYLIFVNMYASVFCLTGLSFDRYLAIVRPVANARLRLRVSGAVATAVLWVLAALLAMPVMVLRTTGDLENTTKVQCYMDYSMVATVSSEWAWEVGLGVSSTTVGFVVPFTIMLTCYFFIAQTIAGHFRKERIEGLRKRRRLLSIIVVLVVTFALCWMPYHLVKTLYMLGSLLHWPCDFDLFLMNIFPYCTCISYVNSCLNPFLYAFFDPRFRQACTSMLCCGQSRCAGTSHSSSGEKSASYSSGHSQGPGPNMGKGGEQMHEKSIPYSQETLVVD
Protocol: Chem-5 APJ stable cells (Millipore # HTS068C) were plated in 384-well format with 10,000 cells/well in 25 ul growth media, then grown 24 hours in a 37° C. tissue culture incubator. One hour before the assay, 25 ul/well FLIPR Calcium 4 dye (Molecular Devices R8142) with 2.5 mM probenecid was added, and cells were incubated one hour in a 37° C. tissue culture incubator. Peptides were solubilized in HBSS, HEPES & 0.1% BSA buffer, and serially-diluted 10-fold, from 50 uM to 5 pM, in triplicate. FLIPR Tetra was used to add peptide to the cells with dye (1:5, for final peptide concentrations ranging from 10 uM to 1 pM). FLIPR dye inside the cells emitted fluorescence after binding to calcium, while fluorescence from outside the cells was masked. […] Readings were done for 3 minutes total, beginning 10 seconds before the peptide addition. Maximum-minimum values were calculated and plotted for each peptide concentration, and GraphPad prism software was used to calculate EC50 values at the curve inflection points, for calcium flux stimulation by peptides.

[1] = Surrogate Activity-Based Plasma Stability Assay; type: in vitro ADME; conditions: rat
Text: Surrogate Activity-Based Plasma Stability Assay:
2) Calculate slope of value above and […]

[2] = Plasma Stability Assay (LC-MS); type: in vitro ADME; conditions: male, Sprague-Dawley, heparinized rat plasma, 37° C., read-out: Plasma stability t½
Protocol: Plasma Stability Assay: Materials: Working solution: 1 mg/mL test article is prepared in Milli-Q water Extraction solution: Methanol:Acetonitrile:Water (1:1:1) with 0.1% Formic Acid and 400 ng/mL Glyburide. Plasma: Male Sprague-Dawley rat plasma (with sodium heparin), purchased from Bioreclamation LLC (Liverpool, N.Y.). Test article was prepared in one of the following biological matrices: heparinized rat plasma, heparinized rat whole blood or lung homogenate. […] Lung homogenate samples were prepared by diluting lung homogenate to 1 mg/ml protein concentration with phosphate buffered saline (PBS), followed by addition of 5 uL Working solution to 995 uL diluted lung homogenate. The samples were incubated at 37° C. with gentle shaking (65˜75 rpm) in a water bath incubator. […] Afterwards, a pipetting device (Tecan Temo) was used to transfer the supernatants to another plate and add 50 uL of water to all samples. The plate was vortexed prior to LC-MS analysis. […] The samples are incubated at 37° C. with gentle shaking (65˜75 rpm) in a water bath incubator. […] The reaction mixture is incubated at 37° C. for 1 hour. After completion of reaction, protein precipitation is performed using 300 uL of acetonitrile. […] Afterwards, a pipetting device (Tecan Temo) is used to transfer 125 uL supernatants to another plate and adds 50 uL of water to all samples. […]

Compound CCCC[C@H](NC(=O)[C@@H]1CCCN1C(=O)CNC(=O)[C@H](CCCCN)NC(=O)[C@@H]1CCSSC[C@H](NC(C)=O)C(=O)N[C@@H](CCCNC(=N)N)C(=O)N2CCC[C@H]2C(=O)N[C@@H](CCCNC(=N)N)C(=O)N[C@@H](CC(C)C)C(=O)N[C@@H](CO)C(=O)N1)C(=O)N1CCC[C@H]1C(=O)N[C@@H](Cc1ccccc1)C(=O)O [Example 6, Ac-C*-R-P-R-L-S-hC*-K-G-P-Nle-P-F-OH] (Ac-CRPRLS[hCys]KGP[Nle]PF-OH; disulfide 1-7) has an EC50 (hAPJ) of 21.4 nM and a half-life [1] of 5 min.

Work on CCCC[C@H](NC(=O)[C@@H]1CCCN1C(=O)CNC(=O)[C@H](CCCCN)NC(=O)[C@@H]1CSSC[C@@H](NC(C)=O)C(=O)N[C@@H](CCCNC(=N)N)C(=O)N2CCC[C@H]2C(=O)N[C@@H](CCCNC(=N)N)C(=O)N[C@@H](CC(C)C)C(=O)N[C@@H](CO)C(=O)N1)C(=O)N1CCC[C@H]1C(=O)N[C@@H](Cc1ccccc1)C(=O)O [Example 12, Ac-c*-R-P-R-L-S-C*-K-G-P-Nle-P-F-OH] (Ac-[dC]RPRLSCKGP[Nle]PF-OH; disulfide 1-7) yielded an EC50 (hAPJ) of 21.4 nM and a half-life [1] of 10 min.

Compound CCCC[C@H](NC(=O)[C@@H]1CCCN1C(=O)CNC(=O)[C@H](CCCCN)NC(=O)[C@H]1CSSC[C@H](NC(C)=O)C(=O)N[C@@H](CCCNC(=N)N)C(=O)N2CCC[C@H]2C(=O)N[C@@H](CCCNC(=N)N)C(=O)N[C@@H](CC(C)C)C(=O)N[C@@H](CO)C(=O)N1)C(=O)N1CCC[C@H]1C(=O)N[C@@H](Cc1ccccc1)C(=O)O [Example 15, Ac-C*-R-P-R-L-S-c*-K-G-P-Nle-P-F-OH] (Ac-CRPRLS[dC]KGP[Nle]PF-OH; disulfide 1-7) has an EC50 (hAPJ) of 193 nM and a half-life [1] of 17.7 min.

With CCCC[C@H](NC(=O)[C@@H]1CCCN1C(=O)CNC(=O)[C@H](CCCCN)NC(=O)[C@@H]1CSSC[C@H](NC(=O)[C@@H]2CCCN2C(=O)[C@H](CCCNC(=N)N)NC(=O)[C@@H]2CCC(=O)N2)C(=O)N[C@@H](CC(C)C)C(=O)N[C@@H](CO)C(=O)N1)C(=O)N1CCC[C@H]1C(=O)N(C)[C@@H](Cc1ccccc1)C(=O)O [Example 29, pE-R-P-C*-L-S-C*-K-G-P-Nle-P-(N-Me)F-OH] ([pGlu]RPCLSCKGP[Nle]P[NMeF]-OH; disulfide 4-7) the EC50 (hAPJ) was 4.2 nM and the half-life [1] was 705 min.

For CCCC[C@@H](NC(=O)[C@@H]1CCCN1C(=O)CNC(=O)[C@H](CCCCN)NC(=O)[C@@H]1CSSC[C@H](NC(=O)[C@@H]2CCCN2C(=O)[C@H](CCCNC(=N)N)NC(=O)[C@@H]2CCC(=O)N2)C(=O)N[C@@H](CC(C)C)C(=O)N[C@@H](CO)C(=O)N1)C(=O)NCCc1ccccc1 [Example 32, pE-R-P-C*-L-S-C*-K-G-P-(D-Nle)-NH(Phenethyl)], the “Surrogate Activity based Plasma stability t½” value [1] was over 1000 min, the half-life [1] was over 1000 min and the half-life [2] was 377 min.

CC(C)C[C@@H]1NC(=O)[C@@H](NC(=O)[C@@H]2CCCN2C(=O)[C@H](CCCNC(=N)N)NC(=O)[C@@H]2CCC(=O)N2)CCSSC[C@@H](C(=O)N[C@@H](CCCCN)C(=O)NCC(=O)N2CCC[C@H]2C(=O)N[C@H](Cc2ccccc2)C(=O)N[C@H](C)C(=O)N[C@H](Cc2ccccc2)C(=O)O)NC(=O)[C@H](CO)NC1=O [Example 36, pE-R-P-hC*-L-S-C*-K-G-P-f-a-f-OH] ([pGlu]RP[hCys]LSCKGP[dF][dA][dF]-OH; disulfide 4-7) showed an EC50 (hAPJ) of 4.2 nM and a half-life [1] of 34 min.
